Source: US20240376163A1, “PEPTIDE FOR INHIBITING CALCINEURIN AND USE THEREOF” (Seoul National University R&DB Foundation, priority 2023, published 2024)
Where two headings read alike, the source gives them in different places.

Legend:
Jurkat T cells = test: DMOG treatment of Jurkat T cells expressing CABIN1 peptide, immunoprecipitation and Western blotting; format: cell-based
Method: In FIG. 6A, Jurkat T cells expressing HA-mCherry-tagged CABIN1 peptide were treated with DMOG for 12 hours in a dose-dependent manner. In FIG. 6B, Jurkat T cells expressing HA-mCherry-tagged CABIN1 peptide were treated with 500 μM DMOG over time. Each cell lysate was immunoprecipitated with HA antibodies, and CNA bound to CABIN1 peptides was detected by Western blotting. HIF-1α was used as a positive control for DMOG treatment. In FIG. 6C, HEK293T cells were transfected with GST-tagged peptides and subjected to GST pull-down assay. Hydroxyproline and O-linked glycosylation of each peptide were detected by Western blotting. NC: negative control.
(§1) Cells were lysed in IP150 buffer and immunoprecipitated Flag- and HA-tagged proteins using Anti-FLAG® M2 Affinity Gel (Sigma-Aldrich) and Pierce™ Anti-HA Agarose (Thermo Fisher Scientific), respectively. Conventional methods were used to construct the buffer and subsequent processes (Kim, H. J. et al. Nuclear Acids Res. 46, 6544-6560 (2018)). To quantify the Western blotting results, band regions were measured using ImageJ (https://imagej.nih.gov/ij/).

p38a [1] = target: T1, p38a (Homo sapiens, UniProt Q16539); test: p38 inhibitor treatment of Jurkat T cells expressing CABIN1 peptide, immunoprecipitation and Western blotting; format: cell-based; design: endogenous in cells; host or cells: Jurkat T (E6-1); conditions: 10 μM, 16 hours
Method: In FIG. 8A, Jurkat T cells expressing HA-mCherry-tagged CABIN1 peptide were treated with 40 nM PMA in a time-dependent manner. Phosphorylated threonine in peptides immunoprecipitated with HA antibody was detected with [PXpTP] antibody. […] In FIG. 8G, Jurkat T cells expressing HA-mCherry-tagged CABIN1 peptide were treated with 10 μM p38a inhibitor for 16 hours. Immunoprecipitation was performed with HA antibody and detected by Western blotting. In FIG. 8H, phosphorylated threonine and peptide-bound CNA in FIG. 8G were measured using ImageJ, and the ratio of phosphorylation and calcineurin bound to CABIN1 peptide was calculated (n=6). The values shown are mean±standard deviation. Statistical differences were determined using one-way analysis of variance. * p<0.05, ** p<0.01, *** p<0.001, CBB: Coomassie Brilliant Blue, NC: negative control.
Cells were lysed in IP150 buffer and immunoprecipitated Flag- and HA-tagged proteins using Anti-FLAG® M2 Affinity Gel (Sigma-Aldrich) and Pierce™ Anti-HA Agarose (Thermo Fisher Scientific), respectively. […] To quantify the Western blotting results, band regions were measured using ImageJ (https://imagej.nih.gov/ij/).

CNA [2] = conditions: SPR, CNA 1.25-10 nM
Method: Biacore T200 (Cytiva) was used to capture biotin-labeled peptides on the surface of Series S Sensor Chip SA (Cytiva). […] Each cycle was performed at 25° C. with 120 seconds of contact and 240 seconds of dissociation at a flow rate of 30 μl/min. The kinetics of the interaction were analyzed using BIAvaluation 3.2 RC1 (Cytiva).

CNA [3] = conditions: biotin-labeled peptides
Method: (§7) A His-pulldown assay was performed with 0.5 ml of IP150 buffer containing 0.5 mM EDTA. His-tagged CNA and GST-tagged peptides were mixed and captured on Ni-NTA agarose beads (Qiagen, Hilden, Germany). The beads were washed three times with binding buffer, and the proteins were analyzed by Western blotting. GST-tagged peptides were pulled down using Glutathione Sepharose™ 4 Fast Flow (Cytiva, Marlborough, MA, USA), and biotin-labeled peptides were pulled down using Streptavidin Agarose Resin (Thermo Fisher Scientific).

CNA [4] = test: Ka (1/MS)
Method: (§2) Table printed on a drawing sheet, FIG. 7G
Head of the field: Ka (1/MS)
(§3) FIG. 7A is the sequence of the CABIN1 peptide with a threonine to valine substitution (TV). […] In FIG. 7C, a luciferase reporter assay was performed to measure NFAT transcriptional activity in Jurkat T cells expressing GST-tagged CABIN1 peptides under PMA and ionomycin treatment (n=3). […] CNA bound to the peptide and phosphorylated threonine were detected by Western blotting. In FIG. 7E, phosphorylation of the 9th threonine of the CABIN1 peptide (threonine 2154 of full-length CABIN1) was detected by LC-MS/MS in Jurkat T cells. In FIG. 7F, an in vitro pull-down assay was performed using streptavidin-coupled agarose beads. CNA bound to the biotinylated peptide was detected with a His antibody. VEET peptide was used as a negative control. In FIG. 7G, CNA binding to biotinylated CABIN1 peptide according to the presence or absence of phosphorylation of the 9th threonine was measured by SPR. CNA concentration ranges are 1.25, 2.5, 5, and 10 nM. The kinetics of the interaction were calculated using the data of the CABIN1 peptide-captured cells minus the negative control peptide-captured cell. The values shown are mean±standard deviation. RU: […], NC: negative control.
(§4) First copying reader's note: SPR binding kinetics of the peptides to CNA; each cell holds the value together with its ± deviation. […]

CNA [5] = test: Kd (1/S)
Method: as §2
Head of the field: Kd (1/S)
as §3, §4

CNAβ2 [6] = target: T2, CNAβ2 (Homo sapiens, UniProt P16298); test: Mammalian two-hybrid assay (GAL4 DBD-peptides, VP16 AD-CNAβ2, pG5-luc) in HEK293T cells; format: cell-based
T2 construct: expressed in transfected cells; host or cells: HEK293T
Method: (§5) To measure the transcriptional activity of NFAT, Jurkat T cells were cotransfected with GST-tagged peptides and NFAT-luc by electroporation. After 24 hours, the cells were pretreated with 0.5 μM FK506 for 1 hour and then treated with 40 nM PMA and 1 μM ionomycin for 8 hours. For mammalian two-hybrid assay, HEK293T cells were cotransfected with GAL4 DBD-tagged CABIN1, VIVIT, chimeric, and substituted peptides, VP16 activation domain-tagged CNAβ2, and pG5-luc (a luciferase reporter plasmid containing the GAL4 reaction promoter) for 24 hours. Harvested cells were lysed with luciferase assay lysis buffer (17 mM KH2PO4, 183 mM K2HPO4, pH 7.8, 0.2% [v/v] Triton X-100) and sonicated briefly. The luciferase activity against each cell lysate was measured using Infinite M200 (Tecan, Männedorf, and Switzerland). In addition, the expression level of the transfected protein was confirmed by Western blotting.

ERK2 = target: T3, ERK2 (Homo sapiens, UniProt P28482); test: In vitro kinase assay; format: biochemical; conditions: purified GST-tagged peptide
T3 construct: purchased Proqinase GmbH (Freiburg, Germany)
Method: (§6) Purified GST-tagged peptides were used for the in vitro kinase assay using activated recombinant kinase obtained from Proqinase GmbH (Freiburg, Germany). Kinase reactions were induced in reaction buffer (50 mM HEPES-NaOH, pH 7.5, 3 mM MgCl2, 3 mM MnCl2, 3 μM sodium orthobanadate, 1 mM dithiothreitol, 50 μM unlabeled ATP, 5 μCi 32P-γ-ATP) for 1 hour at 30° C. The reaction was stopped by the addition of 5× sample buffer, and proteins were isolated using SDS-PAGE. The gels were stained with Coomassie Brilliant Blue, dried, and developed on X-ray film.

JNK1 = target: T4, JNK1 (Homo sapiens, UniProt P45983); test: In vitro kinase assay; format: biochemical; conditions: purified GST-tagged peptide
T4 construct: purchased Proqinase GmbH (Freiburg, Germany)
Method: as §6

p38a [7] = target: T1, p38a; test: In vitro kinase assay; format: biochemical; conditions: purified GST-tagged peptide
Method: as §6

CNAβ2 [8] = target: T2, CNAβ2; test: Immunoprecipitation assay of Flag-CNAβ2 and tagged peptides in HEK293T cells; format: cell-based
Method: as §1

CNA [9] = test: In vitro His-pull down assay with purified protein; format: binding
Method: as §7

[10] = system: NFAT transcriptional activity; test: NFAT luciferase reporter assay in Jurkat T cells expressing GST-tagged peptides; format: cell-based; conditions: PMA and ionomycin treatment
Method: as §5

T1 sequence (Q16539 whole entry): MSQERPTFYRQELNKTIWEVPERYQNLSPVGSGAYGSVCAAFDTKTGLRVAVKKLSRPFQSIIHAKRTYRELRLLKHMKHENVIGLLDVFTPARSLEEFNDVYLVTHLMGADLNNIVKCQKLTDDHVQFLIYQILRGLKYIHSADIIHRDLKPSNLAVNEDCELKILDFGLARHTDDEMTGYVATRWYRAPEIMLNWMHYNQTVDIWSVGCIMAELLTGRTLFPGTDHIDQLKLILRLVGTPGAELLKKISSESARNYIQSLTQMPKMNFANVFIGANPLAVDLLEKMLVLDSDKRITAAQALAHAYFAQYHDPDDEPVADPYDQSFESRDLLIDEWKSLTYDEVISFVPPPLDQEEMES
T2 sequence (P63098 2-170 partner limits assumed, other chains not shown): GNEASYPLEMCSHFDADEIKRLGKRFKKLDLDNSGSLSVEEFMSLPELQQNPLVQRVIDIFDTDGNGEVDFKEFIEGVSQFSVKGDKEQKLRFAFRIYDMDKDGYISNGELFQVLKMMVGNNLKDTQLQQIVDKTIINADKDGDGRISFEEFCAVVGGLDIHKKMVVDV
T3 sequence (P28482 whole entry): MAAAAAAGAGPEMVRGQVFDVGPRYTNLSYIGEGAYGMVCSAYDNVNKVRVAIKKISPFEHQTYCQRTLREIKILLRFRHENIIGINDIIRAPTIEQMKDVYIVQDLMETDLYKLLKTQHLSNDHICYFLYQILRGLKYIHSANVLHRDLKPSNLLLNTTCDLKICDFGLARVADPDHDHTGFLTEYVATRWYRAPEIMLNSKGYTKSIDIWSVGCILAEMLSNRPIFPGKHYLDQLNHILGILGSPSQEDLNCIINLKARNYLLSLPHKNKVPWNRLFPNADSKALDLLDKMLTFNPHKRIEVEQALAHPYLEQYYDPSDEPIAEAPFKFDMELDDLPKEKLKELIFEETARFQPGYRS
T4 sequence (P45983 whole entry): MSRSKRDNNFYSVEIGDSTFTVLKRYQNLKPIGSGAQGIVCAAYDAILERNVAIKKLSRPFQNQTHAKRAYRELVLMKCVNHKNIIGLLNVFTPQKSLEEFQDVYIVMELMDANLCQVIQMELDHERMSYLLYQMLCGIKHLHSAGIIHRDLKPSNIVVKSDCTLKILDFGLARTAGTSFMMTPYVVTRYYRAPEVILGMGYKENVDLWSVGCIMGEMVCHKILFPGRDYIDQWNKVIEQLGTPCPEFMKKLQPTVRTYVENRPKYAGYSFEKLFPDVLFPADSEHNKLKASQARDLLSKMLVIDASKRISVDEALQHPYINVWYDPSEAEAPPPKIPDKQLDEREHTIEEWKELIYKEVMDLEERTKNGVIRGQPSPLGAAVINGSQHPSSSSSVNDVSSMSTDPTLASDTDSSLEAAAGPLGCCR

COC(=O)CNC(=O)C(=O)OC [DMOG, dimethyloxalylglycine]
interaction between CABIN1 peptide and CNA (Jurkat T cells; DMOG dose-dependent 12 hours or 500 μM over time): had no effect on the interaction between CABIN1 peptide and CNA
HIF-1α stabilization (Jurkat T cells; positive control for DMOG treatment): stabilized HIF-1α

Cc1ccccc1C(=O)c1ccc(Nc2ccc(Br)cc2N)cc1Cl [EO 1428]
binding affinity of CABIN1 peptide for CNA (p38a [1]): reducing binding affinity for CNA
phosphorylation of the CABIN1 peptide (p38a [1]): significantly reduced phosphorylation of the CABIN1 peptide

Biotin-AAAMAGFPPEITVTPP {pTHR} P [phosphorylated CABIN1-L-1]
increase of binding affinity to CNA, phosphorylated vs unphosphorylated CABIN1 peptide (CNA [2]; listed as phosphorylated CABIN1 peptide): about three times
increase of binding affinity to CNA, phosphorylated vs unphosphorylated CABIN1 peptide (CNA [2]; listed as phosphorylated CABIN1 peptides): approximately three-fold
affinity for CNA (pull-down) (CNA [3]): dramatically increased the affinity for CNA

MAGFPPEITVTPPTP [CABIN1-L-1] [listing 1 of 2 here]
association rate constant (kon) (CNA [4]): 2613.3±421.5 1/MS
dissociation rate constant (koff) (CNA [5]): 1.31e-3±6.1e-5 1/S

MAGFPPEITVTPPTP [CABIN1-L-1] [listing 2 of 2 here]
binding to CNA (CNAβ2 [6]; GAL4 DBD-tagged peptides, VP16 activation domain-tagged CNA, HEK293T): significantly stronger affinity for CNA than CABIN1-14

PVIVITPPTP [VIVIT PPTP]
improvement of interaction with CNA, VIVIT PPTP vs. VIVIT 10-mer (CNAβ2 [6]; C-terminus PPTP sequence): 4.76 fold
improvement of interaction with CNA, VIVIT PPTP vs. L-1-2 WT (CNAβ2 [6]; N-terminus PVIVIT): 1.93 fold
phosphorylation by ERK2 (ERK2): phosphorylate
phosphorylation by JNK1 (JNK1): phosphorylate
phosphorylation by p38a (p38a [7]): phosphorylate

T6V: CABIN1 peptide with threonine 6 (threonine 2151 of full-length CABIN1) replaced with valine (PEITVVPPTP; left off: a dimerising Fc or GST; small tags and cut ends)
interaction with CNA in cells (CNAβ2 [8]): loss of interaction between the CABIN1 peptide and CNA in cells and in vitro
binding to CNA in vitro (CNA [9]): loss of interaction between the CABIN1 peptide and CNA in cells and in vitro

T9V: CABIN1 peptide with threonine 9 (threonine 2154 of full-length CABIN1) replaced with valine (PEITVTPPVP; left off: a dimerising Fc or GST; small tags and cut ends)
interaction with CNA in cells (CNAβ2 [8]): loss of interaction in cell experiments
NFAT transcriptional activity (luciferase activity) [10]: restored the transcriptional activity of NFAT inhibited by the wild-type CABIN1 peptide more efficiently than the T6V substitution
